Data from patent US6599943B1, “Use of hydroxyguanidines” (WaPharm AB, priority 1996, dated 2003).
Counter-ions that a name gives are not always drawn.

Biological target: bovine milk xanthine oxidase (Bos taurus, UniProt P80457)
Assay: Capacity to sustain oxidation of xanthine by xanthine oxidase in the absence of oxygen, spectrophotometric
Type: biochemical
Design: host or cells: bovine milk
Settings: for V = 1000 × (Δabs 295 nm) min^−1 (initial rate of the support of the oxidation of xanthine): 50 μM hydroxyguanidine, 50 μM xanthine, 0.05 units/ml xanthine oxidase, anaerobic, pH 7.5, 20° C., blank subtracted
Experimental: Capacities of a series of hydroxyguanidine to sustain the oxidation of xanthine by xanthine oxidase in the absence of oxygen. The capacities of various hydroxyguanidines to sustain the oxidation of xanthine was assayed by using a spectrophotometric method. In this method bovine milk xanthine oxidase was injected to a Helma® sealable cuvette for anaerobic application thereby creating 1 ml of a reaction mixture that contained reagents as follows: 50 μM of a hydroxyguanidine, 50 μM xanthine, 0.05 units/ml bovine milk xanthine oxidase, 50 mM Tris and 1.5 mM EDTA; the pH of the reaction mixture being 7.5, and the temperature 20° C. Anaerobic conditions were assured by pre-gassing all solutions used for 5-10 min, with nitrogen. The rate of formation of uric acid was monitored spectrophotometrically by measuring the increase in absorbance at 295 nm (the absorption maximum for uric acid) at intervals. The relative capacities of the hydroxyguanidines to sustain oxidation of xanthine were estimated from the derivative of the initial linear phase of the curves. To obtain blank readings an equal volume of the solvent of the hydroxyguanidine (water) was added to the reaction mixture in separate experiments and the initial rate of absorbance change was substracted from the rate readings of the tested hydroxyguanidine.
Exemplary initial rates for the rate of the support of the oxidation of xanthine obtained by assaying the exemplary hydroxyguanidines listed above by the method in the present example are furthermore given in Table 2: […]

Chain of bovine milk xanthine oxidase (P80457 whole entry): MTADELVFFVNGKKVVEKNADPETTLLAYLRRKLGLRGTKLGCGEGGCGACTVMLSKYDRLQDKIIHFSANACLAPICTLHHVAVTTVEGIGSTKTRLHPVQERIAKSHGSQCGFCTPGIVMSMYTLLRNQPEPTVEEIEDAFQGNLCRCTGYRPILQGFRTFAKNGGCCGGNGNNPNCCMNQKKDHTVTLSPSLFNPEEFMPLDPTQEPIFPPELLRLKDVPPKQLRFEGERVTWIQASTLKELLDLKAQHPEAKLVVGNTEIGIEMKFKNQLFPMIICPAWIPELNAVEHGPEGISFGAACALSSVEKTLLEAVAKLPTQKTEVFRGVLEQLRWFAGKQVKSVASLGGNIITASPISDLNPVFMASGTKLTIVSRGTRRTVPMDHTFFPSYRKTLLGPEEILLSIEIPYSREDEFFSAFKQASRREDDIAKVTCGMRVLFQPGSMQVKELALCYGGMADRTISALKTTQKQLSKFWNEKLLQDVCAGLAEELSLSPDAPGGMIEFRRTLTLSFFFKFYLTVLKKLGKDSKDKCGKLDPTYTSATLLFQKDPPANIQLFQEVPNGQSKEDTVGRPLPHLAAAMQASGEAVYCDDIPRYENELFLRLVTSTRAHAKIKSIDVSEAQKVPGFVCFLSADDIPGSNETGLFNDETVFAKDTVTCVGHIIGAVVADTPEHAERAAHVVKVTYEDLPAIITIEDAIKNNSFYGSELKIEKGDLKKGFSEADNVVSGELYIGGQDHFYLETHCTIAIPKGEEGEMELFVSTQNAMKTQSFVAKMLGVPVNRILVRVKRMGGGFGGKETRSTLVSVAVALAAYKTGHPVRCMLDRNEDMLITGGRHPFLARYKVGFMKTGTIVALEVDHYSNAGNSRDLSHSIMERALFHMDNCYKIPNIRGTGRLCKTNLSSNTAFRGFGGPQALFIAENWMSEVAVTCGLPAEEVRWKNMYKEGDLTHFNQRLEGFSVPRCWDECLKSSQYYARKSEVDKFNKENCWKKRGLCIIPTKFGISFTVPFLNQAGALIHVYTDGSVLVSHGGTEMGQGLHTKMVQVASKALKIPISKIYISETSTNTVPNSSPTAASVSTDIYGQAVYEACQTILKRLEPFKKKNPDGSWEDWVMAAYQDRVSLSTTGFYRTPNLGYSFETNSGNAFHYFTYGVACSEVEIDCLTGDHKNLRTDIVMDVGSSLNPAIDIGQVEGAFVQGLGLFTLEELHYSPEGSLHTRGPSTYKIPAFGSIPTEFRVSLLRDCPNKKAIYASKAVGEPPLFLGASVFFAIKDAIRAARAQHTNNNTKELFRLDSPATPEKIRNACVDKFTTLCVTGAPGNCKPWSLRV

Row | Compound | V = 1000 × (Δabs 295 nm) min^−1 (initial rate of the support of the oxidation of xanthine) | activity / capacity to undergo reduction (reaction A), in words (as disclosed in Example 7)
1 | COc1ccc(/C=N/NC(=N)NO)c(OC)c1 [DWO3, reference compound] | 29.4 1000 × (Δabs 295 nm) min^−1 | moderate capacity
2 | N=C(NO)N/N=C/c1ccc2c(c1)OCCO2 [LW04, reference compound] | 55 1000 × (Δabs 295 nm) min^−1 | –
3 | COc1ccc(/C=N/NC(=N)NO)c(Cl)c1O [DWO5, reference compound] | 59.7 1000 × (Δabs 295 nm) min^−1 | –
4 | CCCCCCOc1cccc(/C=N/NC(=N)NO)c1 [LT7, reference compound] | 12 1000 × (Δabs 295 nm) min^−1 | –
5 | N=C(NO)N/N=C/c1cc[n+](O)cc1 [PR19, N-(N-Oxypyridyl-4-methyleneamino)-N′-hydroxyguanidine tosylate] | 5 1000 × (Δabs 295 nm) min^−1 | –
6 | Cc1nn(C)c(Cl)c1/C=N/NC(=N)NO [PR20, N-(5-Chloro-1,3-dimethylpyrazolyl-4-methyleneamino)-N′-hydroxyguanidine tosylate] | 13 1000 × (Δabs 295 nm) min^−1 | –
7 | N=C(NO)N/N=C1\C(=O)Nc2ccc(F)cc21 [LT5, reference compound] | 50 1000 × (Δabs 295 nm) min^−1 | –
8 | COc1cccc(/C=N/NC(=N)NO)c1 [LT11, reference compound] | 26 1000 × (Δabs 295 nm) min^−1 | –
9 | N=C(NO)NN=CCOc1c(Cl)cccc1Cl [PR17, N-(2,6-Dichlorophenoxyethylideneamino)-N′-hydroxyguanidine bromide] | −2 1000 × (Δabs 295 nm) min^−1 | –
10 | COc1ccc(/C=N/NC(=N)NO)cc1F [DWO7, reference compound] | 30.7 1000 × (Δabs 295 nm) min^−1 | –
11 | N=C(NO)N/N=C/c1cccn1-c1ccc(Cl)cc1 [PR15, N-[1-(4-Chlorophenyl)-pyrrolyl-2-methyleneamino(]-N′-hydroxyguanidine tosylate] | 7 1000 × (Δabs 295 nm) min^−1 | –
12 | N=C(NO)N/N=C/c1c2ccccc2c(Cl)c2ccccc12 [LW01, reference compound] | 0 1000 × (Δabs 295 nm) min^−1 | –
13 | COc1ccc(C=NNC(=N)NO)cc1Br [EN10, N-(3-Bromo-4-methoxybenzylideneamino)-N′-hydroxyguanidine tosylate] | 22 1000 × (Δabs 295 nm) min^−1 | –
14 | N=C(NN)NO [Aminohydroxyguanidine, 1-amino-3-hydroxyguanidine, reference compound] | 1.4 1000 × (Δabs 295 nm) min^−1 | –
15 | Cc1cc2oc(/C=N/NC(=N)NO)cc(=O)c2cc1Cl [EN18, N-(6-Chloro-7-methyl-4oxo-4H-1-benzopyran-3-methyleneamino)-N′-hydroxyguanidine tosylate] | 5 1000 × (Δabs 295 nm) min^−1 | –
16 | ONc1ncn[nH]1 [PR6, 3-Hydroxyimino-1,2,4-triazole tosylate] | 4 1000 × (Δabs 295 nm) min^−1 | –
17 | N=C(NO)NN=C(c1ccccc1)c1ccccc1 [PR2, N-(Diphenylmethyleneamino)-N′-Hydroxyguanidine Bromide] | 1 1000 × (Δabs 295 nm) min^−1 | –
18 | N=C(NO)N/N=C/c1nccs1 [PR16, N-(Thiazolyl-2-methyleneamino)-N′-hydroxyguanidine tosylate] | 13 1000 × (Δabs 295 nm) min^−1 | –
19 | N=C(NO)NN=CCc1ccccc1 [PR13, N-(Phenylethylideneamino)-N′-hydroxyguanidine tosylate] | 3 1000 × (Δabs 295 nm) min^−1 | –

Row | Compound | V = 1000 × (Δabs 295 nm) min^−1 (initial rate of the support of the oxidation of xanthine) | activity / capacity to undergo reduction (reaction A), in words (as disclosed in Example 7)
20 | N=C(NO)N/N=C/c1ccc(/C=N/NC(=N)NO)cc1 [PR1, 1,4-Bis(N-Hydroxyguanidinoiminomethyl)Benzene Bromide] | 63 1000 × (Δabs 295 nm) min^−1 | –
21 | Cc1c(/C=N/NC(=N)NO)sc2ccccc12 [PR18, N-(3-Methylbenzo[b]thienyl-2-methyleneamino)-N'-hydroxyguanidine tosylate] | 43 1000 × (Δabs 295 nm) min^−1 | –
22 | COc1ccc(/C=N/NC(=N)NO)c(OC)c1C [DWO2, reference compound] | 30.7 1000 × (Δabs 295 nm) min^−1 | –
23 | COc1cc(Br)c(/C=N/NC(=N)NO)cc1OC [DWO6, reference compound] | 30.7 1000 × (Δabs 295 nm) min^−1 | –
24 | N-(3- Chloro-5-trifuluoromethylpyridyl-2-methyleneamino)-N′-hydroxyguanidine tosylate [PR14] | 14 1000 × (Δabs 295 nm) min^−1 | –
25 | COc1ccc(/C(C)=N/NC(=N)NO)cc1OC [PR11, 3,4-Dimethoxyacetophenone-N-hydroxyguanyl-hydrazone tosylate] | 12 1000 × (Δabs 295 nm) min^−1 | –
26 | COc1cc(/C=N/NC(=N)NO)c([N+](=O)[O-])cc1OC [DWO8, reference compound] | 45.4 1000 × (Δabs 295 nm) min^−1 | –
27 | N=C(N)NO [Hydroxyguanidine, N-hydroxyguanidine] | 0.7 1000 × (Δabs 295 nm) min^−1 | –
28 | COc1ccc(/C=N/NC(=N)NO)cc1OC [DWO1, reference compound] | 40 1000 × (Δabs 295 nm) min^−1 | –
29 | N=C(NO)N/N=C/c1cccc(/C=N/NC(=N)NO)c1 [PR8, 1,3-Bis(N-hydroxyguanidinoiminomethyl)benzene tosylate chloride] | 29 1000 × (Δabs 295 nm) min^−1 | –
30 | N=C(NO)NN=Cc1ccco1 [PR12, N-(Furyl-2-methyleneamino)-N′-hydroxyguanidine tosylate] | 11 1000 × (Δabs 295 nm) min^−1 | –
31 | N=C(NO)N/N=C\C=C/c1ccccc1 [EN16, N-(3-Phenylpropenyleneamino)-N′-hydroxyguanidine tosylate] | 66 1000 × (Δabs 295 nm) min^−1 | –
32 | N=C(NO)NN=C1CCCCC1 [PR4, N-(Cyclohexylideneamino)-N′-Hydroxyguanidine Tosylate] | 7 1000 × (Δabs 295 nm) min^−1 | –
33 | N=C(NO)N/N=C/C1CCCCC1 [LT10, reference compound] | 3 1000 × (Δabs 295 nm) min^−1 | –
34 | COc1ccc(/C=N/NC(=N)NO)cc1O [DWO4, reference compound] | 36.7 1000 × (Δabs 295 nm) min^−1 | –
35 | CC(=C/c1ccccc1)/C=N/NC(=N)NO [EN20] | 44 1000 × (Δabs 295 nm) min^−1 | –
36 | CC(C)CC=NNC(=N)NO [PR10, N-(3-Methylbutylideneamino)-N′-hydroxyguanidine tosylate] | −1 1000 × (Δabs 295 nm) min^−1 | –
37 | N=C(NO)NN=Cc1ccc(C(F)(F)F)cc1 [EN12, N-(4-Trifluoromethylbenzylideneamino)-N′-hydroxyguanidine tosylate] | 11 1000 × (Δabs 295 nm) min^−1 | –
